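Five compound concentrations were applied to cells in 96-well plates for 48 hours; endpoints were derived by simple linear interpolation of the resulting dose-response curve. At the GI50, growth is halved. TGI: total growth inhibition.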
Columns and labels:
Test in all cases: inhibition of tumour cell growth, NCI panel, 48 h
NCI-H226 lung = tested on: NCI-H226 lung
IGROV1 ovarian = tested on: IGROV1 ovarian
DMS 114 small cell lung = tested on: DMS 114 small cell lung
SNB-78 CNS = tested on: SNB-78 CNS
KM20L2 colon = tested on: KM20L2 colon
A549 NSCLC = tested on: A549 NSCLC
OVCAR-8 ovarian = tested on: OVCAR-8 ovarian
OVCAR-4 ovarian = tested on: OVCAR-4 ovarian
NCI-H23 lung = tested on: NCI-H23 lung
UACC-62 melanoma = tested on: UACC-62 melanoma
MDA-MB-231 breast = tested on: MDA-MB-231 breast
HOP-18 NSCLC = tested on: HOP-18 NSCLC

Row | SMILES | TGI (NCI-H226 lung) | TGI (IGROV1 ovarian) | TGI (DMS 114 small cell lung) | TGI (SNB-78 CNS) | TGI (KM20L2 colon) | TGI (A549 NSCLC) | TGI (OVCAR-8 ovarian) | TGI (OVCAR-4 ovarian) | TGI (NCI-H23 lung) | TGI (UACC-62 melanoma) | GI50 (NCI-H226 lung) | GI50 (MDA-MB-231 breast) | TGI (MDA-MB-231 breast) | GI50 (IGROV1 ovarian) | GI50 (A549 NSCLC) | GI50 (OVCAR-8 ovarian) | GI50 (OVCAR-4 ovarian) | GI50 (NCI-H23 lung) | GI50 (UACC-62 melanoma) | TGI (HOP-18 NSCLC)
1 | N#CCc1cccc(CC#N)c1Br | > 100 µM | > 100 µM | > 100 µM | > 100 µM | > 100 µM | > 100 µM | > 100 µM | > 100 µM | > 100 µM | > 100 µM | – | – | – | – | – | – | – | – | – | –
2 | O=C(O)CSc1n[nH]c(-c2ccco2)n1 | > 100 µM | > 100 µM | – | > 100 µM | > 100 µM | > 100 µM | > 100 µM | > 100 µM | > 100 µM | > 100 µM | – | – | – | – | – | – | – | – | – | –
3 | O=C1CCC(=O)N1Sc1ccccc1 | – | > 100 µM | > 100 µM | > 100 µM | > 100 µM | > 100 µM | > 100 µM | > 100 µM | > 100 µM | > 100 µM | – | – | – | – | – | – | – | – | – | –
4 | COc1cccc(/C=N\NC(=O)C(C)SC(C)C(=O)N/N=C/c2cccc(OC)c2)c1 (centres undefined) | 47.5 µM | 41.7 µM | 41.6 µM | > 100 µM | > 100 µM | 20.6 µM | 70 µM | 31.9 µM | 73.2 µM | 97.4 µM | – | – | – | – | – | – | – | – | – | –
5 | CCOC1Oc2ccc(C)cc2C(=O)/C1=C\Nc1ccc(S(N)(=O)=O)cc1 (centres undefined) | > 50 µM | > 50 µM | – | – | – | > 50 µM | 27.7 µM | > 50 µM | 12.4 µM | 38.2 µM | 22.3 µM | 11.7 µM | 35.5 µM | 15 µM | 13.9 µM | 9.97 µM | 15.2 µM | 2.92 µM | 12.5 µM | –
6 | N#[N+]c1ccc(Nc2ccccc2)cc1 | > 50 µg/mL | > 50 µg/mL | – | – | – | > 50 µg/mL | > 50 µg/mL | 2.27 µg/mL | > 50 µg/mL | > 50 µg/mL | > 50 µg/mL | > 50 µg/mL | > 50 µg/mL | > 50 µg/mL | > 50 µg/mL | > 50 µg/mL | 0.472 µg/mL | > 50 µg/mL | > 50 µg/mL | –
7 | Cc1ccc2ccc(-c3ccccc3)c3c2c1C(=O)c1ccccc1C3=O | > 100 µM | > 100 µM | > 100 µM | > 100 µM | > 100 µM | > 100 µM | > 100 µM | – | > 100 µM | > 100 µM | – | – | – | – | – | – | – | – | – | > 100 µM
8 | Cc1cc(S(N)(=O)=O)c(S/C(=N\NS(=O)(=O)c2ccccc2)c2ccc(Cl)cc2)cc1Cl | > 100 µM | > 100 µM | – | – | – | > 100 µM | > 100 µM | > 100 µM | > 100 µM | > 100 µM | > 100 µM | > 100 µM | > 100 µM | > 100 µM | > 100 µM | > 100 µM | > 100 µM | 87.9 µM | > 100 µM | –
9 | Nc1ncc2ncn(C3CCC(CO)O3)c2n1 (centres undefined) | > 100 µM | > 100 µM | – | – | – | > 100 µM | > 100 µM | > 100 µM | > 100 µM | > 100 µM | – | – | > 100 µM | – | – | – | – | – | – | –
10 | COc1cc(OC)c2c(=O)c3cccc([N+](=O)[O-])c3n(C)c2c1 | – | > 100 µM | > 100 µM | > 100 µM | > 100 µM | > 100 µM | > 100 µM | > 100 µM | > 100 µM | > 100 µM | – | – | – | – | – | – | – | – | – | –
11 | Nn1c(-c2ccc(Cl)cc2)nc2c(-c3ccc(Cl)cc3)nc3ccc(Cl)cc3c2c1=O | > 100 µM | 32.8 µM | – | – | – | > 100 µM | 95.2 µM | 15.1 µM | > 100 µM | > 100 µM | 40.8 µM | 14.1 µM | 62.5 µM | 4.01 µM | 4.8 µM | 7.58 µM | 3.55 µM | 33 µM | 32.2 µM | –
12 | CC1OC(OC2C(O)C(O)C(O)C(O)C2O)C(N)CC1N=C(N)C(=O)O (centres undefined) | > 100 µM | > 100 µM | – | – | – | > 100 µM | > 100 µM | > 100 µM | > 100 µM | > 100 µM | – | – | > 100 µM | – | – | – | – | – | – | –
13 | C=CC(=O)Nc1cc2c(Nc3ccc(F)c(Cl)c3)ncnc2cc1C#CC(C)(C)N1CCN(C)CC1 | 6.04 µM | 1.4 µM | – | – | – | – | 5.35 µM | 2.86 µM | 3.78 µM | 5.58 µM | 4.06 µM | 1.27 µM | 2.73 µM | 0.175 µM | 2.64 µM | 1.85 µM | 1.32 µM | 1.72 µM | 2.94 µM | –
14 | Clc1ccc(CN2CCCN(Cc3ccc(Cl)cc3)C2c2cc3ccccc3c3ccccc23)cc1 | > 100 µM | > 100 µM | – | – | – | > 100 µM | > 100 µM | > 100 µM | > 100 µM | 36.7 µM | – | – | > 100 µM | – | – | – | – | – | – | –
15 | COc1cc(-c2nn(-c3cccc(NC(=O)CCNc4ccc(N5CCOCC5)cc4)c3)cc2-c2ccncc2)ccc1Cl | 27.8 µM | > 100 µM | – | – | – | 25.1 µM | 16.1 µM | 16.6 µM | 20.6 µM | 4.89 µM | 2.89 µM | 2.05 µM | 7.18 µM | 3.31 µM | 1.46 µM | 2.92 µM | 2.6 µM | 2.68 µM | 1.88 µM | –
16 | CC(C)OP(=O)(O)c1ncc(-c2ccc(C(F)(F)F)cc2)c(NC2CCCCCC2)n1 | > 100 µM | > 100 µM | – | – | – | > 100 µM | > 100 µM | > 100 µM | > 100 µM | > 100 µM | > 100 µM | > 100 µM | > 100 µM | > 100 µM | > 100 µM | > 100 µM | 61.2 µM | > 100 µM | 49.7 µM | –
17 | CCOC(=O)[C@@H]1CSC(CC)=C(C(=O)O)N1 | > 100 µM | > 100 µM | – | – | – | > 100 µM | > 100 µM | > 100 µM | > 100 µM | > 100 µM | > 100 µM | > 100 µM | > 100 µM | > 100 µM | > 100 µM | > 100 µM | > 100 µM | > 100 µM | > 100 µM | –
18 | Cc1ccc(C2CC(c3ccc(Nc4ccnc5cc(Cl)ccc45)cc3)=NN2C=O)cc1 (centres undefined) | > 100 µM | > 100 µM | – | – | – | > 100 µM | > 100 µM | > 100 µM | > 100 µM | > 100 µM | > 100 µM | 6.09 µM | > 100 µM | 26.6 µM | 9.86 µM | > 100 µM | 5.15 µM | 6.93 µM | 4.13 µM | –

Source: PubChem BioAssay (NCI)
